# Measurements as given in ChEMBL document CHEMBL1157539, “Thousands of chemical starting points for antimalarial lead identification” (Nature, 2010).
# Where a name gives a salt, the structure may show the parent alone.
# System: Plasmodium falciparum
# Test: GSK_TCMDC: Inhibition of Plasmodium falciparum 3D7 in whole erythrocytes, using parasite LDH activity as an index of growth.
# Assay type: functional, organism-based
SMILES,"XC50 (Plasmodium falciparum, 3D7) [nM]",XC50 [nM]
CS(=O)(=O)c1ccc(Nc2ncc(-c3ccc(S(C)(=O)=O)cc3)c(OCC(F)(F)F)n2)cc1,401,
Cc1cnc(C(=O)Nc2cccc(-c3ccc(-c4nc5cc(F)ccc5[nH]4)cc3)c2)cn1,637,
CC(C)C(C(=O)Nc1ccc(S(=O)(=O)N(C)C)cc1)c1ccc(Cl)cc1 (stereo not drawn),937,
CN(C(=O)C1(c2ccc(Cl)cc2)CC1)C1CCN(CCCCCNC(=O)/C=C/c2ccc(Cl)c(Cl)c2)CC1,769,
CN(C)CCCOc1ccc(CN2CC[C@H](NC(=O)c3ccc(Cl)c(Cl)c3)C2)c2ccccc12,879,
CCN(C(=O)CSc1cc(C)c2cc(C)cc(C)c2n1)C1CCS(=O)(=O)C1 (stereo not drawn),667,
O=C(/C=C/c1ccc(Cl)c(Cl)c1)NCCCCCN1CCC(NC(=O)c2ccc(F)cc2F)CC1,759,
CC[C@H]1CN2CC[C@H]1C[C@H]2[C@H](O)c1cc(-c2ccc(F)cc2C)nc2ccc(OC)cc12,157,
CC(C)CCNc1nc(NCc2ccccc2)c2cc(O)ccc2n1,105,
Cc1cc(NC(=O)c2cccs2)ccc1OC1CCN(Cc2ccccc2)CC1,874,
CS(=O)(=O)c1cccc(-c2cnc(N)c3cc(-c4ccc(F)cc4)ccc23)c1,903,
Cc1cc(N(C)C)nc(Nc2ccc(NC(=O)c3ccccc3F)cc2)n1,1160,
COc1ccc2nccc([C@@H](O)CN3CCC(NCc4ccc5c(c4)NC(=O)CS5)CC3)c2n1,747,
CC(C)(C)NC(=O)COC(=O)c1c2c(nc3ccccc13)C(=Cc1ccc3c(c1)OCO3)CCC2,735,
O=C(Nc1ccc(C(=O)OCC(c2ccccc2)c2ccccc2)cc1)N[C@@H](Cc1ccc(O)cc1)C(=O)NC1CCN(Cc2ccc(O)cc2)C1 (stereo partly drawn),782,
CN/C(=C\[N+](=O)[O-])NCCSCc1cc(C)c(CN(C)C)s1,348,
COc1ccc2ncc(F)c(CCN3CCC(NCc4cc5c(cn4)OCCS5)CC3)c2c1,776,
C=CCC(CC=C)N1C(=O)C(c2ccccc2)(c2ccccc2)N=C1N,659,
COc1cc2c(cc1OC)CN(CCc1ccc(NC(=O)c3cc4cc(Cl)ccc4[nH]3)cc1)CC2,1020,
CN(Cc1cccc(F)c1)C1CCN(c2cc(NC(=O)c3ccc(F)cc3)ccn2)CC1,1160,
NC(=O)CN1CC=C(c2c[nH]c3ccc(Br)cc23)CC1,1100,

SMILES,"XC50 (Plasmodium falciparum, 3D7) [nM]",XC50 [nM]
O=c1cc(NCCCNCc2cc(Cl)c(Cl)cc2Cl)[nH]c2ccccc12,966,
Cn1c2c(c3ccccc31)CN(CCC1(c3ccc(Cl)c(Cl)c3)CN(C(=O)Cc3ccccc3)CCO1)CC2 (stereo not drawn),358,
CC(=O)Nc1ccc(OCCN(CC(F)(F)F)c2ccc(C#N)cc2C(F)(F)F)cc1,767,
O=C(C=Cc1ccc(Br)cc1)N1CCC(CCN2CCC(c3c[nH]c4ccccc34)CC2)CC1,919,
CC(C)C[C@@H](/C=N/N1CCOC1=O)NC(=O)[C@H](CC(C)C)NC(=O)c1ccc(F)cc1,1170,
O=C(Nc1cccc(C(F)(F)F)c1)Nc1nc2ccc([N+](=O)[O-])cc2s1,687,
Cc1cc(N[C@@H](CC(C)C)C(=O)Nc2ccccc2)nc(Nc2ccccc2)n1,728,
CCOc1ccc2nccc([C@@H](O)[C@@H]3C[C@@H]4CCN3C[C@@H]4CC)c2c1 [ETHYLHYDROCUPREINE HYDROCHLORIDE],,112
C=Cc1ccccc1C1(O)CCN(CCCCNC(=O)c2ccc(-c3ccc(C#N)cc3)cc2)CC1,518,
COc1ccc(C2CCN(CCN3CCC(NC(=O)c4ccc(-c5cccc(C(F)(F)F)c5C(F)(F)F)cc4)CC3)CC2)c(OC)c1,419,
CCC[C@@H]([C@@H](CC1CCCCC1)C(=O)N[C@@H](CCOC(=O)NCC)C(=O)Nc1nccs1)N(O)C=O,81.8,
CCN(CC)CCCNc1c2ccccc2nc2ccccc12,753,
CCCCCCCOc1ccc(NC(=O)Nc2ccc(Cn3ncc(N4CCCNCC4)c(Cl)c3=O)cc2)cc1,923,
C=CCc1cc(OC)ccc1OCCCOc1c(C)nc(N)nc1N,3.2,
CC(=O)N(C)c1cccc(C(=O)Nc2cccc(-c3ccc(-c4nc5cc(C(F)(F)F)ccc5[nH]4)cc3)c2)c1,1000,
Cc1ccc2c(c1)NCC21CCN(C[C@@H](O)C2CCN(c3ccnc(Cl)c3)CC2)CC1C (stereo partly drawn),940,
Cc1ccccc1C1CCN(C2CCC(NC(=O)/C=C/c3cc(F)ccc3F)CC2)CC1 (stereo not drawn),1040,
Cc1cccc2nc(-c3cccc(-c4ccc(CNCc5ccc(S(C)(=O)=O)cc5)cc4)c3)[nH]c12,184,
CC(C)N1CCN(C(CN2CCN(CCCOc3ccccc3-c3ccccc3)CC2)c2ccc(F)cc2)CC1 (stereo not drawn),789,
O=S(=O)(NCCN1CCCC1)c1ccc(-c2cccc(CNCc3ccsc3)c2)s1,896,
O=S(=O)(c1c(Cl)cc(Cl)cc1Cl)N1CCCCC(c2ccc(C(F)(F)F)cc2)=N1,95,

SMILES,"XC50 (Plasmodium falciparum, 3D7) [nM]",XC50 [nM]
COc1cccc(C(=O)Nc2ccc(-c3nc4ccccc4[nH]3)cc2)c1,802,
CC(C)Cn1ncc2c3c(N)nc(N)nc3ccc21,159,
O=C(Nc1ccccc1)Nc1cccc(-c2nn3c(OCC4CCCCN4)cccc3c2-c2ccncc2)c1 (stereo not drawn),858,
C=CCn1c(Sc2ccc(C#N)c([N+](=O)[O-])c2)nnc1-c1ccc(Cl)cc1,667,
COc1ccc2c(c1C1CCN(CCCCNC(=O)c3ccc(-c4ccc(Cl)cn4)cc3)CC1)CCCC2,1020,
COc1ccc2nccc([C@@H](O)CN3CCC(NCc4cc5ccccc5s4)CC3)c2c1,347,
O=[N+]([O-])c1ccc(Nc2nc(N/N=C/c3cccc(O)c3)nc(N3CCCC3)n2)cc1,1080,
O=C(Nc1cccc(Cl)c1)N[C@H]1CCN(Cc2ccc(OCCCN3CCCCC3)cc2)C1,729,
COc1cc(Nc2nccc(N3CCC(NC(=O)c4cccc(C#N)c4)C3)n2)cc(OC)c1OC (stereo not drawn),992,
N=C(/N=C(/NCCCCCCN/C(=N/C(=N)NCc1ccc(Cl)c(Cl)c1)N1CCCCC1)N1CCCCC1)NCc1ccc(Cl)c(Cl)c1,567,
COc1ccc(NC(=O)/C=C/c2ccccc2Cl)cc1OCCN1CCC(N2CCN(C)CC2)CC1,487,
CC(C)Cc1ccc(N2CCN(CCCCNC(=O)c3ccc(NC(=O)c4cc(C(F)(F)F)cc(C(F)(F)F)c4)cc3)CC2)cc1,179,
CC(C)(C)c1ccc(S(=O)(=O)Nc2ccccc2Cn2nc(N3CCNCC3)ccc2=O)cc1,846,
Cc1ccc(Nc2nc(N/N=C/c3cc4c(cc3Br)OCO4)nc(Nc3ccc([N+](=O)[O-])cc3)n2)cc1C,750,
CN(C)Cc1ccc(-c2ccc3c(Nc4ccc(Oc5ccccc5)cc4)ccnc3c2)o1,788,
COc1cccc(CNC(=O)c2ccnc(-c3cccc(CN(C)C4CCN(C)CC4)c3)c2)c1,834,
Cc1c(F)cc(C(=O)NC2CC2)cc1-c1ccc2c(c1)c(C)nn2S(=O)(=O)c1cccs1,942,
O=C(/C=C/c1ccc(Cl)c(Cl)c1)NCCCCCN1CCC(NC(=O)Nc2ccc(Cl)c(C(F)(F)F)c2)CC1,650,
COc1ccc2nccc([C@@H](O)CN3CCC(NCc4cc5cccc(OC)c5o4)CC3)c2c1,794,
Nc1nc(N)c2c(ccc3nn(S(=O)(=O)N4CCCC4)cc32)n1,96.6,
O=C(Nc1ccc(-c2nc3ccccc3[nH]2)cc1)c1cnc(Cl)c(Cl)c1,728,

SMILES,"XC50 (Plasmodium falciparum, 3D7) [nM]",XC50 [nM]
c1cc(CN2CCCCC2)cc(OCCCNc2ccnc3ccccc23)c1,433,
COc1ccccc1CCNc1nc(C)cc(N[C@@H](Cc2ccccc2)C(=O)NCCOc2ccccc2)n1,1210,
CS(=O)(=O)c1cccc(-c2cnc3[nH]cc(-c4ccc(C(=O)O)cc4)c3c2)c1,335,
COc1cccc(CNC[C@@H](O)[C@H](Cc2ccccc2)NC(=O)c2cc(C3CCCC3)cc(N3CCCCS3(=O)=O)c2)c1,599,
CC(=O)Nc1nc(C(=O)Nc2ccc(-c3cccc(-c4nc5cccc(C)c5[nH]4)c3)cc2)cs1,232,
Fc1ccc2[nH]ccc(=NN=CC=Cc3ccccc3)c2c1,681,
O=C(C=Cc1ccc(Br)cc1)NC1CCC(CN2CCC(c3c[nH]c4ccccc34)CC2)CC1 (stereo not drawn),682,
O=C(NC1CC1)c1ccc(N2CCC(Cc3ccccc3)CC2)c([N+](=O)[O-])c1,614,
CC(C)Cn1c(Sc2ccc(C#N)c([N+](=O)[O-])c2)nnc1-c1ccccc1,1090,
CS(=O)(=O)CCNCc1ccc(-c2ccc3c(Nc4ccc(F)cc4Cl)ccnc3c2)o1,744,
CCCCOc1ccc(-n2c(Nc3ccccc3)nc3cc(S(N)(=O)=O)ccc32)cc1,887,
CCCCCCOc1ccc(/C(N)=N\Cc2ccccc2)c2c1CCCC2,1270,
Cc1ccnc(Nc2nc(-c3ccccn3)cs2)c1,998,
CC(C)(CNC(=O)C1CCN(CCOCc2ccccc2)CC1)c1nc(-c2ccc(Cl)c(O)c2)c(-c2ccncc2)[nH]1,620,
CC(=O)Nc1cccc(CNc2cc(C)nc(Nc3ccc(C)cc3)n2)c1,1140,
CC(C)(C)C1CC(=O)CC2C(=O)N(c3ccc(Br)cc3)C(=O)C21 (stereo not drawn),934,
COc1cc(F)c2ncc(Cl)c(C(O)CN3CCC(NC(=O)c4ccc5c(c4)NC(=O)CS5)CC3)c2c1 (stereo not drawn),680,
Oc1ccc(CCNc2nc(NCc3ccccc3-c3ccc(C(F)(F)F)cc3)nc(N3CCNCC3)n2)cc1,866,
CCn1c(C(C)C)cc2c3c(N)nc(N)nc3ccc21,12.4,
CCOC(=O)c1ccc2[nH]c(-c3ccc(C(=O)NCc4ccc(C(C)(C)C)cc4)cc3)nc2c1,847,
